Experimental data as given in PubChem BioAssay (NCI).
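Compound exposure: 48 hours, 5 concentrations, 96-well plates. The concentration for full growth arrest is given as TGI.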

What was measured:
Experiment in all cases: inhibition of tumour cell growth, NCI panel, 48 h
COLO 205 colon = system: COLO 205 colon
HOP-92 NSCLC = system: HOP-92 NSCLC
MCF7 breast = system: MCF7 breast
MOLT-4 leukemia = system: MOLT-4 leukemia
NCI-H460 lung = system: NCI-H460 lung
PC-3 prostate = system: PC-3 prostate
RXF 393 renal = system: RXF 393 renal
SF-295 CNS = system: SF-295 CNS
SK-MEL-28 melanoma = system: SK-MEL-28 melanoma
CCRF-CEM leukemia = system: CCRF-CEM leukemia
IGROV1 ovarian = system: IGROV1 ovarian
MALME-3M melanoma = system: MALME-3M melanoma
HL-60(TB) leukemia = system: HL-60(TB) leukemia

| SMILES | TGI (COLO 205 colon) [µM] | TGI (HOP-92 NSCLC) [µM] | TGI (MCF7 breast) [µM] | TGI (MOLT-4 leukemia) [µM] | TGI (NCI-H460 lung) [µM] | TGI (PC-3 prostate) [µM] | TGI (RXF 393 renal) [µM] | TGI (SF-295 CNS) [µM] | TGI (SK-MEL-28 melanoma) [µM] | TGI (CCRF-CEM leukemia) [µM] | TGI (IGROV1 ovarian) [µM] | TGI (MALME-3M melanoma) [µM] | TGI (HL-60(TB) leukemia) [µM] |
| --- | --- | --- | --- | --- | --- | --- | --- | --- | --- | --- | --- | --- | --- |
| O=C1Cc2c([nH]c3ccc(Br)cc23)-c2cc(O)c(O)cc2N1 | > 100 | > 100 | > 100 | > 100 | > 100 | > 100 | > 100 | > 100 | > 100 |  |  |  |  |
| OCCN(CCO)c1ncnc2nc[nH]c12 | > 100 | > 100 | > 100 | > 100 | > 100 | > 100 | > 100 | > 100 | > 100 | > 100 | > 100 | > 100 |  |
| CN(C)C(=NCc1ccccc1)NC#N | > 100 | > 100 |  |  | > 100 |  |  | > 100 | > 100 |  | > 100 |  |  |
| O=[N+]([O-])c1cccc2nc3ccccc3c(NCCCNc3c4ccccc4nc4cccc([N+](=O)[O-])c34)c12 | < 0.01 | < 0.01 |  | 0.0972 |  | 0.143 | < 0.01 | 1.5 | 0.181 | 0.162 | 0.967 | 0.329 | 0.328 |
| CCOC(=O)/C=C/CCO[Si](C)(C)C(C)(C)C | > 100 | > 100 | > 100 | > 100 | > 100 | > 100 | > 100 | > 100 | > 100 | > 100 | > 100 | > 100 |  |
| C/C(=C\CBr)CCC(Br)C(C)(C)Cl (stereo unspecified) | > 100 | > 100 |  | > 100 | > 100 |  | > 100 | > 100 | > 100 |  | > 100 | > 100 |  |
| CC(C)(C)C1=CC(C)(n2[nH]c(=O)n(-c3ccccc3)c2=O)C=C(C(C)(C)C)C1=O | > 100 | > 100 | > 100 |  | > 100 | > 100 |  | > 100 | > 100 |  |  | > 100 |  |
| CCc1c(C)c(C#N)c(=S)n(C2OC(COC(C)=O)C(OC(C)=O)C(OC(C)=O)C2OC(C)=O)c1-c1ccccc1 (stereo unspecified) | > 31.6 | > 31.6 | > 31.6 | > 31.6 | > 31.6 |  |  | 27 | > 31.6 | > 100 | > 31.6 | > 31.6 | > 100 |
| CCC1OC2C(CC=C(C)C)=C3OC(C)(O)C(C)(CC)C(OC(C)=O)C3=C3OC(=O)C=C1C32 (stereo unspecified) | 70.9 | > 100 | > 100 | 77.5 | 84.6 | > 100 |  | 42.2 | 59.1 | > 100 | 69.6 | 49.3 | > 100 |
| CCOC(=O)NNC(=O)NCc1cccc(CNC(=O)NNC(=O)OCC)c1 | > 100 |  | > 100 | > 100 | > 100 | > 100 | > 100 |  | > 100 | > 100 |  | > 100 | > 100 |
| [O-]c1c2cc(-[n+]3c(-c4ccccc4)cc(-c4ccccc4)cc3-c3ccccc3)cc1COCCOCCOCCOCCOC2 | 33.5 | 73.9 |  | > 100 |  |  |  | > 100 | 46.7 | > 100 |  | 98.3 | > 100 |
| C/C=C/C#CC#C/C=C/C=C/C(O)CCO (stereo unspecified) | > 23.1 | > 23.1 |  | > 23.1 | > 23.1 |  | > 23.1 | > 23.1 | > 23.1 | > 23.1 | > 23.1 | > 23.1 | > 23.1 |
| COc1ccc2c(c1)c1c(n2CCN(C)C)-c2ccccc2CC1 | 27.2 | 31 | 35.1 | 35.8 | 30.8 | 25.2 |  | 30.6 | 29.1 | 38.6 | 27 | 35.5 |  |
| CCOC(=O)CNC(=O)C(CSC(=O)N(O)c1ccc(Cl)cc1)NC(=O)CCC(N)C(=O)OCC (stereo unspecified) | > 50 | > 50 | > 50 | > 50 | > 50 | > 50 | > 50 | > 50 | > 50 | > 50 | > 50 |  |  |
| COC(=O)c1ccc(S)c(S(=O)(=O)Nc2n[nH]c(N)n2)c1 | > 100 | > 100 |  | > 100 | > 100 | > 100 |  | > 100 | > 100 | > 100 | > 100 | > 100 | > 100 |
| COc1ccc(N2C(=O)/C(=C\c3cc(OC)c(OC)c(OC)c3)SC2c2ccccc2)cc1 (stereo unspecified) | > 100 | > 100 | > 100 | > 100 | > 100 |  | > 100 | > 100 | > 100 | > 100 |  | > 100 | > 100 |

| SMILES | TGI (COLO 205 colon) [µM] | TGI (HOP-92 NSCLC) [µM] | TGI (MCF7 breast) [µM] | TGI (MOLT-4 leukemia) [µM] | TGI (NCI-H460 lung) [µM] | TGI (PC-3 prostate) [µM] | TGI (RXF 393 renal) [µM] | TGI (SF-295 CNS) [µM] | TGI (SK-MEL-28 melanoma) [µM] | TGI (CCRF-CEM leukemia) [µM] | TGI (IGROV1 ovarian) [µM] | TGI (MALME-3M melanoma) [µM] | TGI (HL-60(TB) leukemia) [µM] |
| --- | --- | --- | --- | --- | --- | --- | --- | --- | --- | --- | --- | --- | --- |
| CC1=C(O)C2=C(C(=O)C1=O)[C@@H](C)CC[C@@H]2[C@@H](C)C/C=C/C(C)(C)O | > 100 |  | > 100 | 93.2 | > 100 | > 100 |  | > 100 |  | > 100 | > 100 |  | 71.3 |
| CC1(C)CNCC(C)(OCc2ccccc2)C(=O)NC(C)(C)CNCC(C)(OCc2ccccc2)C(=O)N1 (stereo unspecified) |  | 4.8 | > 10 | > 10 | > 10 | > 10 | > 10 | > 10 | > 10 | > 10 | > 10 | > 10 |  |
| Oc1ccc2cc(Br)ccc2c1-c1c(O)ccc2ccc(Br)cc12 | 26.5 |  | 28.8 | 20.4 | 15.3 | 25.3 |  | 30.6 | 33.5 | 28.3 | 20.7 | 26.6 | 38.2 |
| CCOP1(=O)C=C(C)C(Cl)=C(C)C1 (stereo unspecified) | 24.4 | 68.3 |  | 76.1 | > 100 |  | 77.2 | > 100 | 56.7 | 59.2 | > 100 |  | 53.9 |
| Cc1nc2ccc(C(F)(F)F)cc2nc1NCc1ccc(Cl)c(Cl)c1 | 30.6 |  | 22.6 | 35.8 | > 100 | 25.6 | 26.5 | 32.2 | 33.9 | 36.6 | 31.3 | 32 | 34.7 |
| CCCCCCCC1(N=[N+]=[N-])C(=O)Nc2ccccc2C1=O (stereo unspecified) | 36.3 | 27.2 | 34.6 | 35.2 | 53.6 | 24.1 | 25.1 | 36.2 | 30.7 | 95.4 | 25.6 | 33.4 |  |
| O=c1[nH]nc(Cc2ccccc2)n1C1CCCC1 | > 100 |  | > 100 | > 100 | > 100 | > 100 | > 100 | > 100 | > 100 | > 100 | > 100 | > 100 | > 100 |
| O=C(CCC1C(=O)NC(=S)NC1=O)c1ccc2ccccc2c1 | > 100 | > 100 |  | > 100 | > 100 |  | > 100 | > 100 | > 100 | > 100 | > 100 | > 100 | > 100 |
| COc1cc2c(c(O)c1OC)C(=O)[C@@H]1CCC(=O)N1C2 | > 100 | > 100 | > 100 | > 100 | > 100 | > 100 |  | > 100 | > 100 | > 100 | > 100 | > 100 | > 100 |
| COc1ccc(OC)c(N(CN2C(=O)CCC2C(=O)O)C(C)=O)c1 (stereo unspecified) | > 100 | > 100 | > 100 | > 100 |  | > 100 |  | > 100 | > 100 | > 100 | > 100 | > 100 | > 100 |
| COc1ccc(OC)c(CNc2ccc(C(=O)O)cc2)c1 | > 100 | > 100 | > 100 | > 100 |  | > 100 |  |  | > 100 | > 100 | > 100 | > 100 | > 100 |
| COC(=O)[C@]1(NC(=O)c2ccccc2)C[C@H]1C=O | > 100 | > 100 | > 100 | > 100 | 77 | > 100 | > 100 | > 100 | > 100 | 51.5 | > 100 | > 100 |  |
| O=C(NC1CCN(Cc2ccccc2)CC1)c1ccc(I)cc1 | > 100 | > 100 |  | > 100 | > 100 | > 100 | 85.7 | > 100 | > 100 | > 100 | > 100 |  | > 100 |
| CCOC(=O)C1(F)S(=O)(=O)OCCOS1(=O)=O | > 100 |  | > 100 | > 100 |  | > 100 | > 100 | > 100 | > 100 |  |  | > 100 |  |
| NC1CC(=O)c2c1sc(Cl)c2Cl (stereo unspecified) | > 100 |  | > 100 | > 100 | > 100 | > 100 | > 100 |  | > 100 | > 100 | > 100 | > 100 | > 100 |
